Results published in ChEMBL document CHEMBL5143752, “Biological Effects of Modifications of the Englerin A Glycolate” (ACS Med Chem Lett, 2022).
Activity calls are given as the source filed them. No cut-off for these calls is given here.

Legend:
A498 = assay: Growth inhibition of human A498 cells assessed as cell growth inhibition; format: functional
[1] = Acute toxicity in mouse assessed as maximum tolerated dose measured for 24 hrs; conditions: in vivo
[2] = target: T1, Short transient receptor potential channel 4 (Homo sapiens) (UniProt Q9UBN4); assay: Agonist activity at human TRPC4 stably expressed in T-REx-293 cells assessed as increase in calcium flux at 10 uM by Fura-2AM dye based fluorescence plate reader assay relative to control; format: cell-based
T1 sequence (whole entry): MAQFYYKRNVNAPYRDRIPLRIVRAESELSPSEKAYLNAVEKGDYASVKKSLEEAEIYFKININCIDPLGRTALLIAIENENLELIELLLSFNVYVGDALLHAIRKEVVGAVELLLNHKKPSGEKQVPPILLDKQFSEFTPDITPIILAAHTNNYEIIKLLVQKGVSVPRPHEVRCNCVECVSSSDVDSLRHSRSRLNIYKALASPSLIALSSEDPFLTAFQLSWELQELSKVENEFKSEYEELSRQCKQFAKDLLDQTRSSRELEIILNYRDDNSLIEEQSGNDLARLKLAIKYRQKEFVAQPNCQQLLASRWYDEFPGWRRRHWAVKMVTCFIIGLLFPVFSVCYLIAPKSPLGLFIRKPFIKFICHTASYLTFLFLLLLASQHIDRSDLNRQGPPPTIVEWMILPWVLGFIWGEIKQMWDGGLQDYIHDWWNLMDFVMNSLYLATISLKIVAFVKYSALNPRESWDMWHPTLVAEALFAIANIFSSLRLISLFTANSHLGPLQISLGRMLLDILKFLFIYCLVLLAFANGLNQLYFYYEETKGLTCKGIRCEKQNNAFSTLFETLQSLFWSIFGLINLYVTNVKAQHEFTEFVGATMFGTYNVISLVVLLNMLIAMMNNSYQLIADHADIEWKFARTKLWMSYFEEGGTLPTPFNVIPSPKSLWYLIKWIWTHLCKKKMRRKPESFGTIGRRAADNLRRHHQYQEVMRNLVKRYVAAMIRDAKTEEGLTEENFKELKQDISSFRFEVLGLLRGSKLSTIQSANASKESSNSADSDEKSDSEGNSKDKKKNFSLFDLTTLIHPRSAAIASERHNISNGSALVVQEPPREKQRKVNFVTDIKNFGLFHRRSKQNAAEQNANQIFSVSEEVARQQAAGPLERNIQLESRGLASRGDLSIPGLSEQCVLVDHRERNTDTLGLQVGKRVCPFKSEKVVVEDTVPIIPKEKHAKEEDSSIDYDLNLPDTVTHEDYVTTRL

UO-31 = assay: Growth inhibition of human UO-31 cells assessed as cell growth inhibition; format: functional
[3] = target: T2, Short transient receptor potential channel 5 (Homo sapiens, UniProt Q9UL62); assay: Agonist activity at human TRPC5 stably expressed in T-REx-293 cells assessed as increase in calcium flux by Fura-2AM dye based fluorescence plate reader assay; format: cell-based
T2 sequence (Q9UL62 whole entry): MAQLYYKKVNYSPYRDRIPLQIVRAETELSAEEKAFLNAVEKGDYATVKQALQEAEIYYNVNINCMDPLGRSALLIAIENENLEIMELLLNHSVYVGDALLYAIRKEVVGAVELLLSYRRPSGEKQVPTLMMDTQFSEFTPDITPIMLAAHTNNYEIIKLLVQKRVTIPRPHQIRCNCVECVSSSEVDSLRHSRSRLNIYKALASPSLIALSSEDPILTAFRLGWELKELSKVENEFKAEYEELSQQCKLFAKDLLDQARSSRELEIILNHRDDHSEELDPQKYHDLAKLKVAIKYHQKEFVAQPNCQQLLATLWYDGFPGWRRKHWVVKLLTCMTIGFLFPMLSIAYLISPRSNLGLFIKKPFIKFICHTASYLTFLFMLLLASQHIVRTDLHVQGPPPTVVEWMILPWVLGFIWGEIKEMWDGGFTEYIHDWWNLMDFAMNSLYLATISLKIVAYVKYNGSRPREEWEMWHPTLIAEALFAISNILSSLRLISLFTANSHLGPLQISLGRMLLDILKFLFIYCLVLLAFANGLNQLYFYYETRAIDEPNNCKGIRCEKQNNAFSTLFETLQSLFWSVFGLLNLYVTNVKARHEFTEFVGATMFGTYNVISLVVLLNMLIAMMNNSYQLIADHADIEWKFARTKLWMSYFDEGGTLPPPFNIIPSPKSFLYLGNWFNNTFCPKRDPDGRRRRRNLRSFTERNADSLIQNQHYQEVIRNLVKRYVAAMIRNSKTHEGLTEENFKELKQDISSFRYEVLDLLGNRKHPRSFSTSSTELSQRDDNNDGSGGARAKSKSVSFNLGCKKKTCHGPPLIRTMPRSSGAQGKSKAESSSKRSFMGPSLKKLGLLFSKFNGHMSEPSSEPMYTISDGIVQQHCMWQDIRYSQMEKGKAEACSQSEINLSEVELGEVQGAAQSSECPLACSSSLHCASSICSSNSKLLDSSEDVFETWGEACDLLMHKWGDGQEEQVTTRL

RXF 393 = assay: Growth inhibition of human RXF 393 cells assessed as inhibition of cell growth; format: functional
[4] = Plasma concentration in mouse at 100 mg/kg, po by LC-MS/MS analysis; format: ADME, organism-based; conditions: in vivo
[5] = target: T3, Short transient receptor potential channel 5 (Homo sapiens) (UniProt Q9UL62); assay: Agonist activity at human TRPC5 stably expressed in T-REx-293 cells assessed as increase in calcium flux at 10 uM by Fura-2AM dye based fluorescence plate reader assay; format: cell-based; conditions: filed as agonist
T3 sequence (whole entry): T2 sequence (Q9UL62 whole entry)

[6] = target: T1, Short transient receptor potential channel 4 (Homo sapiens); assay: Agonist activity at human TRPC4 stably expressed in T-REx-293 cells assessed as increase in calcium flux at 10 uM by Fura-2AM dye based fluorescence plate reader assay; format: cell-based; conditions: filed as agonist

SMILES	GI50 (A498)	MTD at 24 h [1]	Activity [2]	GI50 (UO-31)	EC50 [3]	GI50 (RXF 393)	Cp [4]	Activity [5]	Activity [6]
CC(C)=CC(=O)OCC(=O)O[C@@H]1C[C@]2(C(C)C)O[C@@]1(C)[C@@H]1CC[C@@H](C)[C@H]1[C@@H]2OC(=O)/C=C/c1ccccc1	178 nM	0.4 mg/kg	15%	240 nM	1250 nM	380 nM	1.5 ng/mL		
CC(C)[C@@]12C[C@@H](OC(=O)/C=C/c3ccccc3)[C@@](C)(O1)[C@@H]1CC[C@@H](C)[C@H]1[C@@H]2OC(=O)/C=C/c1ccccc1	> 100000 nM			> 100000 nM		> 100000 nM			
CC(C)[C@@]12C[C@@H](OC(=O)[C@H]3CO3)[C@@](C)(O1)[C@@H]1CC[C@@H](C)[C@H]1[C@@H]2OC(=O)/C=C/c1ccccc1	224 nM			204 nM		170 nM			
CC(C)[C@@]12C[C@@H](OC(=O)COC(=O)/C=C/c3ccccc3)[C@@](C)(O1)[C@@H]1CC[C@@H](C)[C@H]1[C@@H]2OC(=O)/C=C/c1ccccc1	44 nM	1 mg/kg		66 nM		138 nM	38.7 ng/mL		
CCCCCC(=O)OCC(=O)O[C@@H]1C[C@]2(C(C)C)O[C@@]1(C)[C@@H]1CC[C@@H](C)[C@H]1[C@@H]2OC(=O)/C=C/c1ccccc1	52 nM	0.4 mg/kg		41 nM		126 nM		Active	
CC(C)[C@@]12C[C@@H](OC(=O)COC(=O)c3ccccc3)[C@@](C)(O1)[C@@H]1CC[C@@H](C)[C@H]1[C@@H]2OC(=O)/C=C/c1ccccc1	155 nM	0.4 mg/kg		115 nM		282 nM			
CC(C)[C@@]12C[C@@H](OS(C)(=O)=O)[C@@](C)(O1)[C@@H]1CC[C@@H](C)[C@H]1[C@@H]2OC(=O)/C=C/c1ccccc1	145 nM			389 nM		427 nM			
CC(C)[C@@]12C[C@@H](OC(=O)[C@@H]3CO3)[C@@](C)(O1)[C@@H]1CC[C@@H](C)[C@H]1[C@@H]2OC(=O)/C=C/c1ccccc1	2040 nM			1780 nM		7900 nM			
CC(=O)OCC(=O)O[C@@H]1C[C@]2(C(C)C)O[C@@]1(C)[C@@H]1CC[C@@H](C)[C@H]1[C@@H]2OC(=O)/C=C/c1ccccc1	40 nM	0.2 mg/kg		34 nM	480 nM	209 nM			Active
CC(C)[C@@]12C[C@@H](OC(=O)COS(C)(=O)=O)[C@@](C)(O1)[C@@H]1CC[C@@H](C)[C@H]1[C@@H]2OC(=O)/C=C/c1ccccc1	1300 nM			1400 nM		1100 nM			
